{"source": "paper PMC7350276", "about": "(Journal of pharmaceutical and biomedical analysis, 2019)", "origin": "cited, not measured here", "key": {"[1]": {"settings": "male rats, I.V. 4 mg/kg"}, "[2]": {"system": "μ-opioid receptors"}, "[3]": {"system": "μ-opioid receptors", "settings": "reversal of morphine-induced inhibition of twitch of the Guinea pig ileum"}, "[4]": {"system": "rabbits", "settings": "intravenously at doses higher than 10 mg/kg"}, "[5]": {"system": "rabbits", "settings": "subcutaneous 15–20 mg/kg, co-injected with 0.2 mg/kg adrenaline"}, "[6]": {"settings": "I.V. 5 mg/kg, mean ± R.S.D."}}, "note": "Read-outs that look alike come from different tables or passages of the source.", "data": [{"molecule": "CC[C@@H]1CN2CC[C@@]3(O)C(=Nc4cccc(OC)c43)[C@@H]2C[C@@H]1/C(=C\\OC)C(=O)OC", "note": "[7HMG, 7-hydroxymitragynine]", "values": [{"measurement": "MRT", "setting": "[1]", "value": "1.18 ± 0.167", "unit": "h"}, {"measurement": "Functional activity at μ-opioid receptors", "setting": "[2]; no reference given", "value": "potent μ-opioid agonist"}]}, {"molecule": "corynantheidine", "values": [{"measurement": "Functional activity at μ-opioid receptors", "setting": "[3]", "value": "antagonist"}, {"measurement": "Effect on hypertensive effects of adrenaline", "setting": "[4]", "value": "almost fully blocked"}, {"measurement": "Effect on adrenaline-induced mydriasis", "setting": "[5]", "value": "prevented adrenaline-induced mydriasis"}]}, {"molecule": "mitragynine [MG]", "values": [{"measurement": "MRT", "setting": "[6]", "value": "137 ± 18"}, {"measurement": "Functional activity at μ-opioid receptors", "setting": "[2]", "value": "partial agonist"}]}]}
